Test results as given in patent publication US20200032271A1, “COMBINATION THERAPY WITH LIPOSOMAL ANTISENSE OLIGONUCLEOTIDES” (Bio-Path Holdings, Inc., priority 2016, published 2020).
Where “and” joins values, the source holds several entries; their conditions need not be identical. Equal entries are not always repeated. [PEt] = P-ethoxy (ethyl phosphotriester) internucleoside linkage

Columns and labels:
[1] = system: 32Dp210 Bcr-Abl positive leukemia cells; assay: Survival of mice injected with 32Dp210 Bcr-Abl positive leukemia cells, first study; format: in vivo
Procedure: In one study, mice injected with 32Dp210 Bcr-Abl positive leukemia cells were treated with BP1001 (15 mg/kg/dose) or control (empty DOPC liposomes) intravenously beginning one day after injection of tumor cells, twice weekly for up to 6 weeks Mice were observed daily for moribundity/morbidity. All surviving mice were euthanized on Day 40. In mice injected with 32Dp210 Bcr-Abl positive leukemia cells, 60% treated with BP1001 survived to 40 days (end of study) compared to 17% of mice receiving empty liposomes. Mean survival duration in these treated animals was 31.6±13.1 days compared to 23.7±8.3 days in the empty liposome group (FIG. 6A).

[2] = system: acute myeloid leukemia (AML) cells; assay: Cytarabine cytotoxicity after BP1001 pretreatment; format: cell-based; conditions: preclinical studies
[3] = system: 32Dp210 Bcr-Abl positive leukemia cells; assay: Survival of mice injected with 32Dp210 Bcr-Abl positive leukemia cells, second study; format: in vivo
Procedure: In a second study in mice injected with 32Dp210 Bcr-Abl positive leukemia cells, treatment groups received BP1001 at 5, 10, or 15 mg/kg/dose administered intravenously beginning one day after injection of tumor cells, twice weekly for up to 7 weeks. Control groups received DOPC liposomes containing an oligonucleotide of random sequence (15 mg/kg/dose) on the same schedule. Mice were observed daily for moribundity/morbidity. Surviving mice in the control groups were euthanized on Day 41, and in the treatment groups on Day 48.

[4] = system: peripheral blood and bone marrow blasts; assay: Anti-leukemia activity in patients (peripheral blood and bone marrow blasts, response); format: in vivo, human; conditions: for Bone marrow blasts (%) Nadir / Bone marrow blasts (%) Off-Rx / Peripheral blood blasts (%) Off-Rx / Peripheral blood blasts (%) Nadir: individual evaluable patients
Procedure: Peripheral blood assessments were done at baseline (within 14 days of study start), and on days 1, 8, 15, 22, at completion of cycle one, and as clinically indicated. Bone marrow assessments were done at baseline (within 14 days of study start), at completion of cycle one, cycle 2, and as clinically indicated. Baseline cytogenetics data were obtained before treatment. Molecular analysis was conducted to detect somatic mutations on the baseline bone marrow.
BP1001, as a single agent therapy, decreased >50% peripheral blood blasts in 9 of 21 patients, and decreased >50% bone marrow blasts in 3 of 21 patients (Table 8). […] Four patients completed 2 cycles of treatment and three patients completed 5 cycles of treatment (Table 8). These seven patients had diverse cytogenetics and molecular abnormalities such as JAK2 and NRAS mutations (Table 8). […]

[5] = Tissue distribution study in mice (32P-labeled BP1001); format: in vivo; conditions: mouse, 20 mg/kg i.v.
Procedure: Tissue distribution studies of BP1001 were conducted in mice following i.v. administration. Twenty mice (5/group) were divided into three test article groups and one control group. Test article groups were injected i.v. via the tail vein with radio-labeled (^32P) BP1001 at a dose of 20 mg of oligonucleotide per kg of body weight. Injected mice were euthanized by CO2 inhalation at 4, 24, and 48 hours following injection for organ harvest. Control animals were non-injected animals. Spleen, liver, kidney, heart, stomach, lung, and bone marrow tissue were collected from all animals, and tissue samples (50-100 mg) from each organ were weighed and processed. ^32P radioactivity was counted in a scintillation counter. Results were expressed as mean μg BP1001/g tissue. As expected, no radioactivity was detected in control animals. […] BP1001 accumulated in all tissues examined, with the highest accumulation in spleen, liver, and kidney tissue. At 4 h following injection, mean BP1001 tissue concentrations per g of tissue were: 64 μg (spleen), 50 μg (liver), 34 μg (kidney), and ranged from 12-34 μg in other tissues. […] A minimal amount of BP1001 (˜0.4 μg in two femurs) was detected in the bone marrow, where the concentration remained relatively constant for […].

[6] = 15 mg/kg/dose i.v. twice weekly
[7] = of 21 evaluable patients, single agent

## BP1001: liposome-incorporated P-ethoxy antisense oligodeoxynucleotide (5′-ATATTTGGCGATGGCTTC-3′, SEQ ID NO: 1) specific to grb2 mRNA, in neutral DOPC liposomes (DNA, all [PEt], methylation of C not given here; incorporated in neutral DOPC liposomes)
[1]; [6]
  Mean survival duration: 31.6 ± 13.1 days
[1]; 15 mg/kg/dose i.v. twice weekly from day 1 after tumor cells
  mice surviving to 40 days (end of study): 60%
[2]
  effect of pretreatment on cytarabine cytotoxicity: enhances cytarabine cytotoxicity
[3]; 5 mg/kg/dose i.v. twice weekly
  Mean survival duration: 20.8 ± 4.7 days
[3]; 10 mg/kg/dose i.v. twice weekly
  Mean survival duration: 22.2 ± 8.7 days
[3]; [6]
  Mean survival duration: 44.2 ± 8.5 days
  mice surviving to 48 days (end of study): 80%
[4]; 5 mg/m^2, no Ara-C
  Bone marrow blasts (%) Nadir: 10% and 4%
  Bone marrow blasts (%) Off-Rx: 10% and 6%
  Peripheral blood blasts (%) Off-Rx: 1% and 50% and 21% and 97% and 5% and 0%
[4]; 10 mg/m^2, no Ara-C
  Bone marrow blasts (%) Nadir: 76% and None and 38%
  Bone marrow blasts (%) Off-Rx: 76% and 80% and 38%
  Peripheral blood blasts (%) Nadir: 31% and 5% and 43%
  Peripheral blood blasts (%) Off-Rx: 72% and 63% and 74%
[4]; 20 mg/m^2, no Ara-C
  Bone marrow blasts (%) Nadir: 3%
  Peripheral blood blasts (%) Nadir: 0%
  Peripheral blood blasts (%) Off-Rx: 1% and 0%
[4]; 40 mg/m^2, no Ara-C
  Bone marrow blasts (%) Nadir: None (2×) and 54%
  Bone marrow blasts (%) Off-Rx: 36% and 80%
  Peripheral blood blasts (%) Nadir: 3% and None (2×)
  Peripheral blood blasts (%) Off-Rx: 19% and 80% and 97%
[4]; 60 mg/m^2, no Ara-C
  Bone marrow blasts (%) Nadir: 88% and None
  Bone marrow blasts (%) Off-Rx: 88% and 92%
  Peripheral blood blasts (%) Nadir: 93% and 7% and 17%
  Peripheral blood blasts (%) Off-Rx: 98% and 24% and 82%
[4]; 90 mg/m^2, no Ara-C
  Bone marrow blasts (%) Nadir: None and 22%
  Bone marrow blasts (%) Off-Rx: 17% and 22%
  Peripheral blood blasts (%) Nadir: 0% and None (2×)
  Peripheral blood blasts (%) Off-Rx: 0% and 42% and 92%
[4]; BP1001 5 mg/m^2, no Ara-C
  Peripheral blood blasts (%) Nadir: 0% (2×) and 7% and 5% and 82% and 2%
[4]; [7]
  patients with improvement of leukemia cutis: two
  patients with transient decline in blasts: six
[4]; of 21 evaluable patients, single agent (Part A)
  patients with ≥50% reduction in peripheral or bone marrow blasts: 10
[4]; one CML blast crisis patient with T315I, from 81%
  peripheral blasts after four BP1001 infusions: 5%
[4]; single agent therapy
  patients with >50% decrease of bone marrow blasts: 3 of 21
  patients with >50% decrease of peripheral blood blasts: 9 of 21
[5]
  tissue half-life in lungs: ~48 h
  tissue half-life in spleen, liver, kidney, heart and stomach: approximately 24 h
[5]; 4 h
  mean tissue concentration, kidney: 34 μg/g tissue
  mean tissue concentration, liver: 50 μg/g tissue
  mean tissue concentration, other tissues: 12-34 μg/g tissue
  mean tissue concentration, spleen: 64 μg/g tissue
[5]; relatively constant for 72 h
  amount detected in bone marrow (two femurs): ~0.4 µg
